# Laboratory results taken from patent US11427586B2, “1,2,4-oxadiazole derivatives as liver X receptor agonists” (NOVARTIS AG, priority 2019, dated 2022).
# pEC50: −log10 of the molar value. Like-named read-outs stand apart in the source and are kept apart here.
# Columns and labels:
# SZ95 sebocytes = assay: Sentinel Lipid Assay (SLA), desaturation index in SZ95 sebocytes; type: cell-based; settings: Homo sapiens, 72 h; for pEC50: desaturation index, lowest dose used 4.6 nM, read-out: SLA EC50
# Summary of the method: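 SZ95 human sebocytes on fibronectin-coated plates, dosed 72 h at 37 °C with 1:3 dilutions from 10 μM; lipids extracted with deuterated triglyceride internal standards and quantified by LC-MS/MS (MRM) as 11 sentinel lipids. Desaturation index from elastic-net coefficients, normalized to DMSO; Amax relative to a reference LXR agonist.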
# SCD1 = assay: Measurement of SCD1 expression in SZ95-SCD1-HiBit cells (HiBiT assay); type: cell-based; settings: Homo sapiens, 48 h; for pEC50: SCD1 protein production, luminescence, initial dilution 1:3 in DMSO, read-out: HiBit EC50
# [1] = normalized Amax based on the reference compound Amax of 100%, read-out: SLA Normalized Amax
# [2] = SZ95 cells, compared to reference compound, read-out: SLA Amax
# [3] = normalized Amax based on the reference compound Amax of 100%, read-out: HiBit Normalized Amax
# [4] = SZ95-SCD1-HiBit cells, compared to reference compound, read-out: HiBit Amax
pEC50 (SZ95 sebocytes; SZ95 cells),pEC50 (SCD1; SZ95-SCD1-HiBit cells),Compound,Emax (SZ95 sebocytes; [1]),Emax (SZ95 sebocytes; [2]),Emax (SCD1; [3]),Emax (SCD1; [4])
7.46,8.98,"CC(COc1ccc(-c2noc(CN3C(=O)N(CCN4CCOCC4)C4(CCN(C(=O)c5cncnc5)CC4)C3=O)n2)cc1C(F)(F)F)(C(F)(F)F)C(F)(F)F [Compound 30, 1-(2-morpholinoethyl)-8-(pyrimidine-5-carbonyl)-3-((3-(4-(3,3,3-trifluoro-2-methyl-2-(trifluoromethyl)propoxy)-3-(trifluoromethyl)phenyl)-1,2,4-oxadiazol-5-yl)methyl)-1,3,8-triazaspiro[4.5]decane-2,4-dione]",85.5%,82.1%,89.3%,84.9%
≥ 8.34,9.36,"CC(COc1ccc(-c2noc(CN3C(=O)N(CCC4CCOCC4)C4(CCN(C(=O)c5cncnc5)CC4)C3=O)n2)cc1C(F)(F)F)(C(F)(F)F)C(F)(F)F [Compound 31, 8-(pyrimidine-5-carbonyl)-1-(2-(tetrahydro-2H-pyran-4-yl)ethyl)-3-((3-(4-(3,3,3-trifluoro-2-methyl-2-(trifluoromethyl)propoxy)-3-(trifluoromethyl)phenyl)-1,2,4-oxadiazol-5-yl)methyl)-1,3,8-triazaspiro[4.5]decane-2,4-dione]",100%,96.3%,82.3%,78.3%
≥ 8.34,8.62,"CC(C)CS(=O)(=O)c1ccccc1Oc1ccc(-c2noc(CN3C(=O)N(CCN4CCOCC4)C4(CCN(C(=O)CCN(C)C)CC4)C3=O)n2)cc1C(F)(F)F [Compound 32, 8-(3-(dimethylamino)propanoyl)-3-((3-(4-(2-(isobutylsulfonyl)phenoxy)-3-(trifluoromethyl)phenyl)-1,2,4-oxadiazol-5-yl)methyl)-1-(2-morpholinoethyl)-1,3,8-triazaspiro[4.5]decane-2,4-dione]",100%,96.2%,84.9%,80.7%
≥ 8.34,8.07,"CC(C)CS(=O)(=O)c1ccccc1Oc1ccc(-c2noc(CN3C(=O)N(CCN4CCOCC4)C4(CCN(C(=O)C5CCN(C)CC5)CC4)C3=O)n2)cc1C(F)(F)F [Compound 33, 3-((3-(4-(2-(isobutylsulfonyl)phenoxy)-3-(trifluoromethyl)phenyl)-1,2,4-oxadiazol-5-yl)methyl)-8-(1-methylpiperidine-4-carbonyl)-1-(2-morpholinoethyl)-1,3,8-triazaspiro[4.5]decane-2,4-dione]",121%,116%,113%,107%
≥ 8.34,9.42,"CC(C)CS(=O)(=O)c1ccccc1Oc1ccc(-c2noc(CN3C(=O)N(CCN4CCOCC4)C4(CCN(C(=O)c5ccncn5)CC4)C3=O)n2)cc1C(F)(F)F [Compound 34, 3-((3-(4-(2-(isobutylsulfonyl)phenoxy)-3-(trifluoromethyl)phenyl)-1,2,4-oxadiazol-5-yl)methyl)-1-(2-morpholinoethyl)-8-(pyrimidine-4-carbonyl)-1,3,8-triazaspiro[4.5]decane-2,4-dione]",171%,164%,85.7%,81.5%
7.76,9.21,"CCCC(=O)N1CCC2(CC1)C(=O)N(Cc1nc(-c3ccc(Oc4ccccc4S(=O)(=O)CC(C)C)c(C(F)(F)F)c3)no1)C(=O)N2CCN1CCOCC1 [Compound 35, 8-butyryl-3-((3-(4-(2-(isobutylsulfonyl)phenoxy)-3-(trifluoromethyl)phenyl)-1,2,4-oxadiazol-5-yl)methyl)-1-(2-morpholinoethyl)-1,3,8-triazaspiro[4.5]decane-2,4-dione]",122%,117%,73.1%,69.5%
≥ 8.34,9.92,"CC(C)CS(=O)(=O)c1ccccc1Oc1ccc(-c2noc(CN3C(=O)N(CCC4CCOCC4)C4(CCN(C(=O)c5cnccn5)CC4)C3=O)n2)cc1C(F)(F)F [Compound 36, 3-((3-(4-(2-(isobutylsulfonyl)phenoxy)-3-(trifluoromethyl)phenyl)-1,2,4-oxadiazol-5-yl)methyl)-8-(pyrazine-2-carbonyl)-1-(2-(tetrahydro-2H-pyran-4-yl)ethyl)-1,3,8-triazaspiro[4.5]decane-2,4-dione]",131%,126%,81.5%,77.5%
≥ 8.34,10.18,"CC(C)CS(=O)(=O)c1ccccc1Oc1ccc(-c2noc(CN3C(=O)N(CCC4CCOCC4)C4(CCN(C(=O)c5cncnc5)CC4)C3=O)n2)cc1C(F)(F)F [Compound 37, 3-((3-(4-(2-(isobutylsulfonyl)phenoxy)-3-(trifluoromethyl)phenyl)-1,2,4-oxadiazol-5-yl)methyl)-8-(pyrimidine-5-carbonyl)-1-(2-(tetrahydro-2H-pyran-4-yl)ethyl)-1,3,8-triazaspiro[4.5]decane-2,4-dione]",145%,140%,91.8%,87.3%
≥ 8.34,8.28,"CC1(C)C(=O)N(Cc2nc(-c3ccc(Oc4ccccc4S(=O)(=O)CC4CCOC4)c(C(F)(F)F)c3)no2)C(=O)N1CCN1CCOCC1 (stereo not drawn) [Compound 38, 5,5-dimethyl-1-(2-morpholinoethyl)-3-((3-(4-(2-(((tetrahydrofuran-3-yl)methyl)sulfonyl)phenoxy)-3-(trifluoromethyl)phenyl)-1,2,4-oxadiazol-5-yl)methyl)imidazolidine-2,4-dione]",160%,154%,75.8%,72.1%
≥ 8.34,8.85,"CC1(C)C(=O)N(Cc2nc(-c3ccc(Oc4ccccc4S(=O)(=O)C4CC(O)C4)c(C(F)(F)F)c3)no2)C(=O)N1CCN1CCOCC1 (stereo not drawn) [Compound 39, 3-((3-(4-(2-((3-hydroxycyclobutyl)sulfonyl)phenoxy)-3-(trifluoromethyl)phenyl)-1,2,4-oxadiazol-5-yl)methyl)-5,5-dimethyl-1-(2-morpholinoethyl)imidazolidine-2,4-dione]",170%,164%,93.9%,89.3%
≥ 8.34,8.15,"CC1(C)C(=O)N(Cc2nc(-c3ccc(Oc4ccccc4S(=O)(=O)CC4CCCOC4)c(C(F)(F)F)c3)no2)C(=O)N1CCN1CCOCC1 (stereo not drawn) [Compound 40, 5,5-dimethyl-1-(2-morpholinoethyl)-3-((3-(4-(2-(((tetrahydro-2H-pyran-3-yl)methyl)sulfonyl)phenoxy)-3-(trifluoromethyl)phenyl)-1,2,4-oxadiazol-5-yl)methyl)imidazolidine-2,4-dione]",168%,161%,74.7%,71%
≥ 8.34,9.78,"CC1(C)C(=O)N(Cc2nc(-c3ccc(Oc4ccccc4C(F)(F)F)c(C(F)(F)F)c3)no2)C(=O)N1CCN1CCOCC1 [Compound 41, 5,5-dimethyl-1-(2-morpholinoethyl)-3-((3-(3-(trifluoromethyl)-4-(2-(trifluoromethyl)phenoxy)phenyl)-1,2,4-oxadiazol-5-yl)methyl)imidazolidine-2,4-dione]",92.2%,88.5%,93%,88.4%
≥ 8.34,8.82,"CC1(C)C(=O)N(Cc2nc(-c3ccc(OCC(C)(C(F)(F)F)C(F)(F)F)c(C(F)(F)F)c3)no2)C(=O)N1CCN1CCOCC1 [Compound 42, 5,5-dimethyl-1-(2-morpholinoethyl)-3-((3-(4-(3,3,3-trifluoro-2-methyl-2-(trifluoromethyl)propoxy)-3-(trifluoromethyl)phenyl)-1,2,4-oxadiazol-5-yl)methyl)imidazolidine-2,4-dione]",157%,150%,86.1%,81.9%
≥ 8.34,8.94,"CC(CS(=O)(=O)c1ccccc1Oc1ccc(-c2noc(CN3C(=O)N(CCN4CCOCC4)C(C)(C)C3=O)n2)cc1C(F)(F)F)N1CCCC1 (stereo not drawn) [Compound 43, 5,5-dimethyl-1-(2-morpholinoethyl)-3-((3-(4-(2-((2-(pyrrolidin-1-yl)propyl)sulfonyl)phenoxy)-3-(trifluoromethyl)phenyl)-1,2,4-oxadiazol-5-yl)methyl)imidazolidine-2,4-dione]",147%,141%,84.1%,80%
≥ 8.34,8.18,"CC(C)CS(=O)(=O)c1ccccc1Oc1ccc(-c2noc(CN3C(=O)CN(CCN4CCOCC4)C3=O)n2)cc1C(F)(F)F [Compound 44, 3-((3-(4-(2-(isobutylsulfonyl)phenoxy)-3-(trifluoromethyl)phenyl)-1,2,4-oxadiazol-5-yl)methyl)-1-(2-morpholinoethyl)imidazolidine-2,4-dione]",86.4%,82.9%,77%,73.2%
≥ 8.34,8.60,"CC(C)CS(=O)(=O)c1ccccc1Oc1ccc(-c2noc(CN3C(=O)N(CCN4CCOCC4)C4(CCC4)C3=O)n2)cc1C(F)(F)F [Compound 45, 7-((3-(4-(2-(isobutylsulfonyl)phenoxy)-3-(trifluoromethyl)phenyl)-1,2,4-oxadiazol-5-yl)methyl)-5-(2-morpholinoethyl)-5,7-diazaspiro[3.4]octane-6,8-dione]",162%,155%,94.2%,89.6%
